Data as given in patent US11278524B2, “Formulations and methods for the treatment of cancers” (Stemirna (Shanghai) Biotechnology Co. LTED., priority 2018, dated 2022).

Key:
[1] = tested on: LAPC9 androgen-independent tumors; experiment: Therapy of LAPC9 androgen-independent tumors; type: in vivo, mice
Experimental: (§1) The xenograft models—LAPC9, LAPC4, LNCaP, and VCaP were serially passaged in castrated male NOD/SCID-γ mice (NSG; for LNCaP or NOD/SCID for the other models). The tumors were then harvested for western blot analysis for androgen receptor, androgen receptor-target molecules, cancer stem cell (CSC) and castration resistance (CR) markers. PC3 cells were used as a negative control for androgen receptors. 60 μg of whole cell lysate was loaded in each lane. GADPH was run as the loading controls (top and bottom panels).
To determine the sensitivity of LAPC9 androgen-independent tumors to enzalutamide, therapy experiments were performed as described for the LNCaP primary AI tumors (FIG. 3). […] To determine whether blocking alternate pathways regulated by any of these high expressing proteins, in the Enzalutamide resistant LAPC9 androgen-independent tumors, affects tumor burden, therapy experiments were performed with the Bromodomain and Extra-Terminal protein (a upstream regulator of Myc transcription) inhibitor, JQ1. The integrin α2β1 inhibitor, Compound 15 (142,143) was used as a positive control.

LNCaP AI-tumors = experiment: Therapy of mice bearing LNCaP androgen-independent (AI) tumors; type: in vivo
[2] = tested on: LAPC4 androgen-independent tumors; experiment: Therapy of castrated mice bearing LAPC4 androgen-independent tumors; type: in vivo
Experimental: as §1
To determine whether targeting cyt-AR in these tumors would be effective in reducing tumor burden, castrated mice bearing LAPC4 androgen-independent tumors were administered enzalutamide as indicated (FIG. 5B), and the tumor volume measured.
However, starting from ˜6.5-7 weeks, tumors resumed growth, indicative of resistance to enzalutamide. […] This opens the possibility of employing combinatorial approaches that target androgen receptor (Enzalutamide) together molecules such as Bcl2 (Venetoclax).

[3] = enzalutamide-resistant LAPC9 AI tumors
[4] = enzalutamide-resistant LAPC4 tumors, western blot

**Q.** `Cc1sc2c(c1C)C(c1ccc(Cl)cc1)=N[C@@H](CC(=O)OC(C)(C)C)c1nnc(C)n1-2` [JQ1, (S)-tert-butyl 2-(4-(4-chlorophenyl)-2,3,9-trimethyl-6H-thieno[3,2-f][1,2,4]triazolo[4,3-a][1,4]diazepin-6-yl)acetate] was tested. Which tumor growth [1, 3] did it give?
**A.** significantly inhibited tumor growth

**Q.** And the tumor incidence [1, 3]?
**A.** not tumor incidence

**Q.** Which “Bcl-2 expression in response to enzalutamide” value (LNCaP AI-tumors; among CSC and castration resistance markers, western blot) does the source give for `CNC(=O)c1ccc(N2C(=S)N(c3ccc(C#N)c(C(F)(F)F)c3)C(=O)C2(C)C)cc1F` [Enzalutamide, 4-(3-(4-Cyano-3-(trifluoromethyl)phenyl)-5,5-dimethyl-4-oxo-2-thioxoimidazolidin-1-yl)-2-fluoro-N-methylbenzamide] here?
**A.** most prominent upregulation

**Q.** What about the “duration of growth suppression” value (LNCaP AI-tumors; enzalutamide i.p.) of the same compound?
**A.** 6.5 weeks

**Q.** What about the “time at which no further response to enzalutamide was observed (emergence of enzalutamide-resistant tumors)” value (LNCaP AI-tumors; enzalutamide i.p.) of the same compound?
**A.** about 7 weeks

**Q.** What about the “growth of androgen-independent LNCaP tumors” value (LNCaP AI-tumors; enzalutamide i.p., vehicle corn oil) of the same compound?
**A.** suppressed growth

**Q.** What about the FKBP5 expression (LNCaP AI-tumors; enzalutamide-resistant secondary LNCaP CR tumors, western blot) of the same compound?
**A.** decreased

**Q.** What about the PSA expression (LNCaP AI-tumors; enzalutamide-resistant secondary LNCaP CR tumors, western blot and IHC) of the same compound?
**A.** decreased

**Q.** What about the FKBP5 levels ([1]; both vehicle and treatment groups, western blot) of the same compound?
**A.** greatly diminished

**Q.** And the “levels of integrin α2, c-Myc, N-cadherin, Bcl-2 and p-ERK1/2” value ([1]; enzalutamide-treated tumors, western blot)?
**A.** continued to express high levels

**Q.** And the “response of tumors to enzalutamide (tumor volume)” value ([1]; primary AI tumors, vehicle corn oil)?
**A.** refractory

**Q.** And the “expression of androgen receptors and PSA” value ([1]; western blot and IHC of endpoint tumors)?
**A.** no expression

**Q.** What about the E-cadherin expression [2, 4] of the same compound?
**A.** slight increases

**Q.** What about the “levels of GR, N-cadherin, Bcl-2 and integrin α2” value [2, 4] of the same compound?
**A.** continued to express high levels

**Q.** What about the androgen receptor localization ([2]; enzalutamide-resistant tumors, immuno-histochemistry) of the same compound?
**A.** still largely in the cytoplasm

**Q.** And the “tumor growth compared to vehicle (corn oil) control” value ([2]; first 2-3 weeks)?
**A.** grew significantly slower

**Q.** What about the “time from which tumors resumed growth (resistance to enzalutamide)” value ([2]; mouse, in vivo) of the same compound?
**A.** 6.5-7 weeks

**Q.** What about the “growth of enzalutamide-resistant cyto-AR+ LAPC4 tumors” value ([2]; up to 13 weeks, compared with enzalutamide-resistant LNCaP tumors) of the same compound?
**A.** grew relatively slow

**Q.** Which results are given for `CC#C[C@]1(O)CC[C@H]2[C@@H]3CCC4=CC(=O)CCC4=C3[C@@H](c3ccc(N(C)C)cc3)C[C@@]21C` [mifepristone]?
**A.** emergence (incidence) of LNCaP secondary castration resistant prostate cancer (LNCaP AI-tumors; combination with enzalutamide given simultaneously, LNCaP primary AI tumors, P<0.0001, χ2 test for venetoclax combination): without reducing incidence; tumor growth (LNCaP AI-tumors; combination with enzalutamide, LNCaP primary AI tumors): inhibited tumor growth
